The values below come from PubChem BioAssay (NCI).

Some test systems named below: M14 melanoma; A549 NSCLC; HCC-2998 colon; SK-MEL-5 melanoma; MOLT-4 leukemia; SW-620 colon; IGROV1 ovarian; OVCAR-5 ovarian; KM12 colon; PC-3 prostate.
Common to all, as to test: NCI-60 cell line screen, 48 h

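Method: 48-hour compound exposure of cells in 96-well plates, five concentrations, linear interpolation of endpoints. At the TGI there is no net growth.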 A value given as a limit tells only on which side of the number the result lay.

Take `C=C1C[C@@H]2O[C@H]3[C@H]4[C@@H](C[C@@H](C)[C@@H](OC(C)=O)[C@H]42)[C@@H](C)CO[C@@]3(C)[C@H](OC(C)=O)C[C@H]1O`: the TGI with M14 melanoma is above 100 µM; in the assay on A549 NSCLC, above 100 µM; with HCC-2998 colon, above 100 µM; in the assay on SK-MEL-5 melanoma, above 100 µM; in the assay on MOLT-4 leukemia, 85.6 µM; with SW-620 colon, above 100 µM. For the same molecule, the TGI with IGROV1 ovarian, in the assay on OVCAR-5 ovarian, in the assay with KM12 colon and with PC-3 prostate was above 100 µM each time.
Consider `O=C(O)c1nc(-c2ccccc2)ncc1-c1nnnn1-c1ccccc1`, for which the TGI in the assay on M14 melanoma, in the assay on A549 NSCLC, in the assay with HCC-2998 colon, in the assay with SK-MEL-5 melanoma, in the assay with MOLT-4 leukemia and with SW-620 colon was above 100 µM in each case. Also, the TGI in the assay with IGROV1 ovarian, with OVCAR-5 ovarian, in the assay on KM12 colon and in the assay on PC-3 prostate was above 100 µM throughout.
`O=[N+]([O-])c1ccc(Cl)c(C=NC23CC4CC(CC(C4)C2)C3)c1`: the TGI in the assay with M14 melanoma, in the assay with A549 NSCLC, with HCC-2998 colon, in the assay on SK-MEL-5 melanoma, with MOLT-4 leukemia and in the assay with SW-620 colon was above 10 µM each time. The TGI in the assay with IGROV1 ovarian, with OVCAR-5 ovarian, with KM12 colon and in the assay with PC-3 prostate was above 10 µM each time.
With `CCN(CC)c1c(N(CC)CC)c(=O)c1=O`, the TGI came to 36.9 µM with M14 melanoma; 43.7 µM with A549 NSCLC; 39.9 µM with HCC-2998 colon; 35.2 µM in the assay with SK-MEL-5 melanoma; 16.4 µM with MOLT-4 leukemia; 20.1 µM in the assay on SW-620 colon. Moreover, the TGI in the assay on IGROV1 ovarian came out at 8.01 µM; in the assay with OVCAR-5 ovarian it was 37.2 µM; in the assay with KM12 colon it was 48.4 µM; in the assay on PC-3 prostate, 46.4 µM.
On to `Cc1cc(C)c(S(=O)(=O)N2CCCN(S(=O)(=O)c3c(C)cc(C)cc3C)OCCCON(S(=O)(=O)c3c(C)cc(C)cc3C)CCCN(S(=O)(=O)c3c(C)cc(C)cc3C)OCCCO2)c(C)c1`, for which the TGI with M14 melanoma, in the assay with A549 NSCLC, in the assay with HCC-2998 colon, with SK-MEL-5 melanoma, in the assay with MOLT-4 leukemia and with SW-620 colon was above 100 µM in each case. The TGI in the assay with IGROV1 ovarian, with OVCAR-5 ovarian, in the assay with KM12 colon and in the assay with PC-3 prostate was above 100 µM in each case.
Regarding `CCSc1n/c(=C\c2ccco2)c2nnnn12`, the TGI in the assay with M14 melanoma, in the assay with A549 NSCLC, with HCC-2998 colon, in the assay with SK-MEL-5 melanoma, with MOLT-4 leukemia and with SW-620 colon was above 100 µM throughout. The TGI in the assay on IGROV1 ovarian, with OVCAR-5 ovarian, with KM12 colon and in the assay with PC-3 prostate was above 100 µM in each case.
Take `CCC1(CC)SCc2nc3ccccc3n21`: the TGI is 70.5 µM in the assay on M14 melanoma; above 100 µM in the assay with A549 NSCLC; above 100 µM with HCC-2998 colon; 36.5 µM with SK-MEL-5 melanoma; 84.3 µM in the assay on MOLT-4 leukemia; above 100 µM in the assay on SW-620 colon. In addition, the TGI in the assay with IGROV1 ovarian is above 100 µM; in the assay on OVCAR-5 ovarian it was above 100 µM; with KM12 colon, 61.5 µM; with PC-3 prostate it was 81.1 µM.
As for `CC1CC(N)=Nc2ccccc2N1` (stereo not given), the TGI in the assay on M14 melanoma, in the assay with A549 NSCLC, in the assay with HCC-2998 colon, in the assay with SK-MEL-5 melanoma, in the assay on MOLT-4 leukemia and in the assay with SW-620 colon was above 100 µM throughout. Further, the TGI with IGROV1 ovarian, with OVCAR-5 ovarian, in the assay with KM12 colon and in the assay on PC-3 prostate was above 100 µM throughout.
As for `O=S(=O)(c1ccccc1)n1c2cc3cccnc3nc2c2cccnc21`, the TGI in the assay with M14 melanoma, in the assay on A549 NSCLC, with HCC-2998 colon, in the assay with SK-MEL-5 melanoma, in the assay with MOLT-4 leukemia and with SW-620 colon was above 100 µM throughout. Also, the TGI with IGROV1 ovarian, with OVCAR-5 ovarian, with KM12 colon and with PC-3 prostate was above 100 µM each time.
For `NC(Cc1cccc([N+](=O)[O-])c1)C(=O)O` (stereo not given), the TGI in the assay on M14 melanoma, with A549 NSCLC, in the assay with HCC-2998 colon, in the assay on SK-MEL-5 melanoma, with MOLT-4 leukemia and with SW-620 colon was above 100 µM throughout. Also, the TGI in the assay with IGROV1 ovarian, in the assay on OVCAR-5 ovarian, with KM12 colon and in the assay with PC-3 prostate was above 100 µM in each case.
Turning to `COc1ccc(CC2c3cc(Oc4cc(CC5c6cc(OC)c(OC)cc6CCN5C)ccc4O)c(OC)cc3CCN2C)cc1` (stereo not given), the TGI turned out to be 12.1 µM in the assay on M14 melanoma; 13.4 µM in the assay on A549 NSCLC; 2.64 µM in the assay on HCC-2998 colon; 14.4 µM in the assay with SK-MEL-5 melanoma; 12.9 µM with MOLT-4 leukemia; 7.29 µM in the assay on SW-620 colon. The TGI in the assay with IGROV1 ovarian was found to be 16.2 µM; with OVCAR-5 ovarian it was 16.6 µM; in the assay on KM12 colon, 5.33 µM; in the assay with PC-3 prostate it was 11.4 µM.
Take `COc1ccc(C(C)NNC(=O)c2ccncc2)c(OC)c1` (stereo not given): the TGI in the assay with M14 melanoma, in the assay on A549 NSCLC, in the assay on HCC-2998 colon, with SK-MEL-5 melanoma, in the assay on MOLT-4 leukemia and with SW-620 colon was above 100 µM in each case. For the same molecule, the TGI with IGROV1 ovarian, with OVCAR-5 ovarian, in the assay on KM12 colon and with PC-3 prostate was above 100 µM throughout.
`O=C1N=c2ccccc2=C1c1c(O)[nH]c2ccccc12`: the TGI was above 100 µM in the assay with M14 melanoma; above 100 µM with A549 NSCLC; 63.5 µM in the assay with HCC-2998 colon; above 100 µM in the assay with SK-MEL-5 melanoma; above 100 µM with MOLT-4 leukemia; above 100 µM in the assay on SW-620 colon. Besides, the TGI in the assay on IGROV1 ovarian is above 100 µM; in the assay with OVCAR-5 ovarian it was 12.4 µM; with KM12 colon, above 100 µM; with PC-3 prostate, 26.2 µM.
